In brackets after ≈: the same amount, converted by molar mass.
What was measured:
[1] = Aqueous solubility at room temperature after 24 hrs by HPLC method; type: physicochemical; settings: aqueous medium
[2] = Inhibition of PI3K (unknown origin); design: species or system Homo sapiens
[3] = Inhibition of human recombinant Phosphatidylinositol 4-kinase type 3-beta expressed in Sf9 cells assessed as reduction in […] by pyruvate kinase and lactate dehydrogenase coupled assay
[4] = Cytotoxicity against Hepatitis C virus genotype 1b Con1 infected human HuH7 cells after 48 hrs by MTT assay; type: cell-based, Huh-7; settings: HuH7 cells infected with Hepatitis C virus genotype 1b Con1
Hepatitis C virus [5] = test: Antiviral activity against Hepatitis C virus subtype 1a infected in HuH7 cells by cell based replicon assay; type: functional, Hepacivirus hominis; settings: Huh-7
Hepatitis C virus [6] = test: Antiviral activity against Hepatitis C virus subtype 2a JFH-1 infected in HuH7 cells by cell based replicon assay; type: functional, Hepacivirus hominis; settings: genotype 2a JFH-1, Huh-7
Hepatitis C virus [7] = test: Antiviral activity against Hepatitis C virus genotype 1b Con1 infected in HuH7 cells by cell based replicon assay; type: functional, Hepacivirus hominis; settings: genotype 1b Con1, Huh-7
[8] = Inhibition of human recombinant Phosphatidylinositol 4-kinase type 3-alpha expressed in Sf9 cells assessed as reduction in […] by pyruvate kinase and lactate dehydrogenase coupled assay

solubility at 24 h [1] | IC50 [2] | IC50 [3] | EC50 (Hepatitis C virus [5]) | EC50 (Hepatitis C virus [6]) | EC50 (Hepatitis C virus [7]) | IC50 [8] | SMILES | CC50 at 48 h [4]
< 2 µM | 2.4 µM | 0.135 µM | 1.58 µM | 1.82 µM | 1.02 µM | > 10 µM | Cc1ccc(-c2cnc(C3CC3)o2)cc1S(=O)(=O)Nc1ccccc1Cl | > 31 µM
220 µM (≈ 82.8 µg/mL) | > 9.1 µM | 0.049 µM | 0.166 µM |  | 0.099 µM |  | Cc1ccc(-c2cnc(C3CC3)o2)cc1S(=O)(=O)N[C@H]1CC[C@H](O)CC1 | > 31 µM
 |  | > 2.5 µM | 2.1 µM |  | 6.73 µM |  | Cc1cc(-c2cnc(C3CC3)o2)cc(S(=O)(=O)N[C@H]2CC[C@H](O)CC2)c1C | > 31 µM
 | 6.29 µM | 0.018 µM | 0.059 µM | 0.375 µM | 0.046 µM | > 10 µM | Cc1ccc(-c2oc(C3CC3)nc2C)cc1S(=O)(=O)N[C@H]1CC[C@H](O)CC1 | > 31 µM
 | 8.2 µM | 0.019 µM | 0.066 µM | 0.324 µM | 0.034 µM | > 10 µM | COc1ccc(-c2oc(C3CC3)nc2C)cc1S(=O)(=O)N[C@H]1CC[C@H](O)CC1 | > 31 µM
 |  | 1.61 µM |  |  | > 10 µM |  | COc1ccc(-c2ocnc2C)cc1S(=O)(=O)N[C@H]1CC[C@H](O)CC1 | > 31 µM
 |  | 0.414 µM |  |  | 3.21 µM |  | COc1ccc(-c2oc(C)nc2C)cc1S(=O)(=O)N[C@H]1CC[C@H](O)CC1 | > 31 µM
 |  | 0.028 µM | 0.086 µM | 0.147 µM | 0.041 µM |  | COc1ccc(-c2oc(C3(C)CC3)nc2C)cc1S(=O)(=O)N[C@H]1CC[C@H](O)CC1 | > 31 µM
 |  | 0.009 µM |  |  | 0.03 µM |  | COc1ccc(-c2oc(C3CCCC3)nc2C)cc1S(=O)(=O)N[C@H]1CC[C@H](O)CC1 | > 31 µM
 |  | 0.019 µM |  |  | 0.108 µM |  | COc1ccc(-c2oc(C3CCCCC3)nc2C)cc1S(=O)(=O)N[C@H]1CC[C@H](O)CC1 | > 31 µM
 |  | 0.009 µM |  |  | 0.032 µM |  | COc1ccc(-c2oc(C3CCC(CO)CC3)nc2C)cc1S(=O)(=O)N[C@H]1CC[C@H](O)CC1 (some centres undefined) | > 31 µM
 |  | 0.036 µM |  |  | 0.402 µM |  | COc1ccc(-c2oc(C3CCOCC3)nc2C)cc1S(=O)(=O)N[C@H]1CC[C@H](O)CC1 | > 31 µM
 |  | 0.037 µM |  |  | 0.193 µM |  | COc1ccc(-c2oc(-c3ccccc3)nc2C)cc1S(=O)(=O)N[C@H]1CC[C@H](O)CC1 | > 31 µM
 |  | 0.191 µM |  |  | 0.41 µM |  | COc1ccc(-c2oc(-c3ccncc3)nc2C)cc1S(=O)(=O)N[C@H]1CC[C@H](O)CC1 | > 31 µM
 |  | 0.004 µM | 0.053 µM | 0.383 µM | 0.041 µM |  | COc1ccc(-c2oc(Cc3ccccc3)nc2C)cc1S(=O)(=O)N[C@H]1CC[C@H](O)CC1 | > 31 µM
 |  | > 2.5 µM |  |  | > 30 µM |  | COc1ccc(-c2oc(C3CC3)nc2C)cc1 | > 31 µM
 |  | 0.076 µM |  |  | 0.12 µM |  | COc1ccc(-c2oc(C3CC3)nc2C)cc1S(C)(=O)=O | > 31 µM
 |  | 0.079 µM |  |  | 0.067 µM |  | COc1ccc(-c2oc(C3CC3)nc2C)cc1S(=O)(=O)CC1CCC(O)CC1 (centres undefined) | > 31 µM
 |  | 9.73 µM |  |  | 3.56 µM |  | COc1ccc(-c2oc(C3CC3)nc2C)cc1C(=O)N[C@H]1CC[C@H](O)CC1 | > 31 µM
 |  | 0.011 µM |  |  | < 0.03 µM |  | COc1ccc(-c2oc(C3CC3)nc2C)cc1S(=O)(=O)Nc1cccc(C#N)c1 | > 31 µM
 |  | 0.027 µM |  |  | 0.043 µM |  | COc1ccc(-c2oc(C3CC3)nc2C)cc1S(=O)(=O)NCCO | > 31 µM
 |  | 0.064 µM |  |  | 0.067 µM |  | COc1ccc(-c2oc(C3CC3)nc2C)cc1S(N)(=O)=O | > 31 µM
 |  | 0.033 µM |  |  | 0.114 µM |  | COc1ccc(-c2oc(C3CC3)nc2C)cc1S(=O)(=O)NCC(C)(C)O | > 31 µM
 |  | 0.037 µM |  |  | 0.193 µM |  | COc1ccc(-c2cnc(C3CC3)o2)cc1S(=O)(=O)N[C@H]1CC[C@H](O)CC1 | > 31 µM
 |  | 0.054 µM |  |  | 0.356 µM |  | COc1ccc(-c2cc(C3CC3)nn2C)cc1S(=O)(=O)N[C@H]1CC[C@H](O)CC1 | > 31 µM
 |  | 1.03 µM |  |  | 9.95 µM |  | COc1ccc(-c2[nH]c(C3CC3)nc2C)cc1S(=O)(=O)N[C@H]1CC[C@H](O)CC1 | > 31 µM

Source: ChEMBL document CHEMBL3351967, “2-Alkyloxazoles as potent and selective PI4KIIIβ inhibitors demonstrating inhibition of HCV replication” (Bioorg Med Chem Lett, 2014)
